Reference: ChEMBL document CHEMBL1201862, “PubChem BioAssay data set” (2004)
The source made the active and inactive calls.

Key:
Leucine aminopeptidase = molecular target: T1, Leucine aminopeptidase (Plasmodium falciparum 3D7, UniProt Q8IL11); experiment: P. falciparum M17LAP inhibitors, primary screen, biochemical, fluorogenic H-Leu-NHMec substrate, 1536-well (AID 1619); type: functional
T1 sequence (Q8IL11 whole entry): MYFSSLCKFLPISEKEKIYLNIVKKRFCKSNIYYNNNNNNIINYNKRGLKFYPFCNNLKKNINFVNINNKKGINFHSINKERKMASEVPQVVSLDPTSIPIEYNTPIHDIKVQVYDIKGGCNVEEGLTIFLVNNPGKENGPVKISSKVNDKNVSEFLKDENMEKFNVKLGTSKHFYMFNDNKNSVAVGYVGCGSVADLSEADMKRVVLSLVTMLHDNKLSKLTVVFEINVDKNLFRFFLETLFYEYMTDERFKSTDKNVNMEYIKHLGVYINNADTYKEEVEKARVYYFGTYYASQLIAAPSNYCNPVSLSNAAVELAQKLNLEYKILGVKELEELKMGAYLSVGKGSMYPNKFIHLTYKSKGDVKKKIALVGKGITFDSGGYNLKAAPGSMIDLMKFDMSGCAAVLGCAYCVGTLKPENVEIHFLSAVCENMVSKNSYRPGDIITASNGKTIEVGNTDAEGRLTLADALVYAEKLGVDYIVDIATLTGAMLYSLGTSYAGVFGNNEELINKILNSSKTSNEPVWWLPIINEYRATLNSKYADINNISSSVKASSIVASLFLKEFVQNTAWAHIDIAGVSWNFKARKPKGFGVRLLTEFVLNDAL

Aspartyl aminopeptidase = molecular target: T2, Aspartyl aminopeptidase (Plasmodium falciparum 3D7, UniProt Q8I2J3); experiment: Counterscreen for inhibitors of M1 and M17 aminopeptidases: QFRET-based biochemical high throughput dose response assay for inhibitors of the Plasmodium falciparum M18 Aspartyl Aminopeptidase (PFM18AAP). [Related PubChem assays: 1619 (Screening assay (M17LAP inhibitors).), 1445 (Screening assay (M1AAP inhibitors).)]
T2 sequence (Q8I2J3 whole entry): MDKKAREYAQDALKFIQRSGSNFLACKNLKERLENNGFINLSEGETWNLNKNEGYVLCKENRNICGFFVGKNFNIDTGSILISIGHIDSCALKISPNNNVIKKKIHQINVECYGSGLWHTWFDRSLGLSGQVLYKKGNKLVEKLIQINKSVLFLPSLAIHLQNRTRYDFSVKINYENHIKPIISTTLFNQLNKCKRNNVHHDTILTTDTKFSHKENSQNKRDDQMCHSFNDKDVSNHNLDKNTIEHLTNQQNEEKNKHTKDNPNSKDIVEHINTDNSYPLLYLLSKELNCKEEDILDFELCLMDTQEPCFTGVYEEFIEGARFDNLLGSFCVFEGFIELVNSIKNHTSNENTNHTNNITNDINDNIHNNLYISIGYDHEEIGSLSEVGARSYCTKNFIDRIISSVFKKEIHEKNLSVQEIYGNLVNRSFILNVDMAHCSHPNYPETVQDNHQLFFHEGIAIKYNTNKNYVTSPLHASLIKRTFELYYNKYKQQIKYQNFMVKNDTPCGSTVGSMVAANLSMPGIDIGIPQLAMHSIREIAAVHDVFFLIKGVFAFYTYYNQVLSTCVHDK

Procathepsin L = Procathepsin L (Homo sapiens, UniProt P07711); experiment: CTSL1 protease inhibition – biochemical, QFRET, 1536-well, counter-screen for M1/M17 aminopeptidase inhibitor project, dose response (AID 2214)
Procathepsin L, sequence (P07711 whole entry): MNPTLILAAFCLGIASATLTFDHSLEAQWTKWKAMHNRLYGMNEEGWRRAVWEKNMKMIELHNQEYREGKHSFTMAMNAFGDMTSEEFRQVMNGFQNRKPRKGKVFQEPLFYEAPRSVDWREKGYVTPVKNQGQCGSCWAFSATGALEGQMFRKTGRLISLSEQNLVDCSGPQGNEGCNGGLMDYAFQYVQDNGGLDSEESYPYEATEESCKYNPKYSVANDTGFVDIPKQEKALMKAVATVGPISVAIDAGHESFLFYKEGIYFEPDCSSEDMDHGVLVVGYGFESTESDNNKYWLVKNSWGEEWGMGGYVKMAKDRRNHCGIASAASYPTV

Cytochrome P450 2C19 = Cytochrome P450 2C19 (Homo sapiens, UniProt P33261); experiment: Cytochrome panel assay with activity outcomes. Panel member name: p450-cyp2c19 Compounds with AC50 equal or less than 10 uM are considered active; type: functional; details: read-out: AC50
Cytochrome P450 2C19, sequence (P33261 whole entry): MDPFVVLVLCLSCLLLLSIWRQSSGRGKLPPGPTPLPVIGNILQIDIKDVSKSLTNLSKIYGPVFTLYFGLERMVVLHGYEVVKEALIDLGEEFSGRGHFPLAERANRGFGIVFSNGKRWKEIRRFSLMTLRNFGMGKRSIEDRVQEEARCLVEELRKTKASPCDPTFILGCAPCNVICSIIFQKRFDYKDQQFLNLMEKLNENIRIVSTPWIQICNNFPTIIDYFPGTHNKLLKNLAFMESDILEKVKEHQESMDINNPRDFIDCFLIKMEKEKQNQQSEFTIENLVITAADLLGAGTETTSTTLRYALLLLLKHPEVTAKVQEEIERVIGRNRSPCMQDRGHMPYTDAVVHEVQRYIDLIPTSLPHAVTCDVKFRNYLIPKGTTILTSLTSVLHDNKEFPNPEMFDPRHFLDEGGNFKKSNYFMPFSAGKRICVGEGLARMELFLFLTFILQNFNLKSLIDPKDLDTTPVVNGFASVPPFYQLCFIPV

Cytochrome P450 2C9 = Cytochrome P450 2C9 (Homo sapiens, UniProt P11712)
Cytochrome P450 2C9, sequence (P11712 whole entry): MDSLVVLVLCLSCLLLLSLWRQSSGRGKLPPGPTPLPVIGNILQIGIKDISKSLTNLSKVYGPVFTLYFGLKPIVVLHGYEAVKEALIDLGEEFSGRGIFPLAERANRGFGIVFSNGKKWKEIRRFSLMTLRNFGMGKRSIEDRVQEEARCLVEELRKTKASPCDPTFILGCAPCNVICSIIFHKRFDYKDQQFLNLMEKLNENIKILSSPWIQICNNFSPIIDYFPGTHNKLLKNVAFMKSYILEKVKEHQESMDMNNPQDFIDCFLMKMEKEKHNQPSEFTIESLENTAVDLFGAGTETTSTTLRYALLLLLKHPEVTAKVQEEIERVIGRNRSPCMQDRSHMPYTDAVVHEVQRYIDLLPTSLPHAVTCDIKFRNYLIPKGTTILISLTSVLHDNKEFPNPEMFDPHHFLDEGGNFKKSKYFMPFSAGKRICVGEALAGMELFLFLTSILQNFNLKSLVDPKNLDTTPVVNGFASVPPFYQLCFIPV

[1] = A High Throughput Confirmatory Assay used to Identify Novel Compounds that Inhibit Mycobacterium Tuberculosis in the absence of Glycerol.; type: functional
Melanocortin receptor 4 = Melanocortin receptor 4 (Homo sapiens, UniProt P32245); experiment: inhibitors of MC4R cAMP signaling – cell-based, TR-FRET, biased antagonists, dose response (AID 602298); type: functional;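 further: antagonist potency against agonist-stimulated cAMP production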
Melanocortin receptor 4, sequence (P32245 whole entry): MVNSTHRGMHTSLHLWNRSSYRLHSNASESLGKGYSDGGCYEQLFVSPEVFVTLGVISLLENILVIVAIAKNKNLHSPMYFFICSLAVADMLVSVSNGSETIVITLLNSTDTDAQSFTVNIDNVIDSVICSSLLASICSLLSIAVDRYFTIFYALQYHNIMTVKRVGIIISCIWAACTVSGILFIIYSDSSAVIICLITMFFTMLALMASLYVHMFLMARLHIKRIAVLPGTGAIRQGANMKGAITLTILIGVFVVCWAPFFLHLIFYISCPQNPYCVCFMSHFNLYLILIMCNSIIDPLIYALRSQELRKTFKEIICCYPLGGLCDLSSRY

[2] = cAMP pathway inhibition in counterscreen cell line – TR-FRET cAMP detection, counter-screen for MC4R biased antagonist project, dose response (AID 602305); type: functional, cell-based;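 further: U2OS cells stimulated with forskolin near its EC80 as the cAMP inducer; potency is for inhibition of forskolin-stimulated cAMP signaling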
[3] = antiviral protection against BTV-induced cell death – arbovirus, BSR cells, confirmation (AID 1250); type: functional;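 further: protection from viral cytopathic effect measured as cell viability by ATP luminescence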
NS3 = NS3 (Hepatitis C virus, UniProt A3EZJ3); experiment: PubChem AID 2173; parameters: species or system Hepacivirus hominis
NS3, sequence (A3EZJ3 whole entry): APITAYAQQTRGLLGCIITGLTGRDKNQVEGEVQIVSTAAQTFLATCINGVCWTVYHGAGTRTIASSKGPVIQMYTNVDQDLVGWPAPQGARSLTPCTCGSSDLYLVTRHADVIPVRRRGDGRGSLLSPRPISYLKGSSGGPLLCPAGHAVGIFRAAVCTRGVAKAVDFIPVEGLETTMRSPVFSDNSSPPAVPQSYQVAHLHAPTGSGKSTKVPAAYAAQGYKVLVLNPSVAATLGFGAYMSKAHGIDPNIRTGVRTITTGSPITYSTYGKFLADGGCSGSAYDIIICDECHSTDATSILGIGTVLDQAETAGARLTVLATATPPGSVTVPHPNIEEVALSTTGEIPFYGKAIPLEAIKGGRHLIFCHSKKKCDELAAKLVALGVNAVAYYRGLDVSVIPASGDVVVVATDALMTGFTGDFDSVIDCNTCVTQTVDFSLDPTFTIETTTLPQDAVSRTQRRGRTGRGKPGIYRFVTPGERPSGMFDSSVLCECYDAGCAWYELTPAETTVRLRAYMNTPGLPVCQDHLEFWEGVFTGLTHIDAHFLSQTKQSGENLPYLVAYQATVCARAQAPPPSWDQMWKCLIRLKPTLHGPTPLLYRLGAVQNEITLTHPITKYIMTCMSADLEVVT

[4] = Luminescence Cell-Based/Microorganism Confirmation at Dose of Inhibitors of Trypanosoma cruzi Infection. [Related pubchem assays: 1885, 1968 ]; type: functional
[5] = Trypanosoma cruzi growth suppression in host cells – NIH3T3 host cells, beta-gal luminescence, confirmation (AID 2044); type: functional, cell-based;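 further: intracellular parasites grown in NIH/3T3 mouse fibroblasts as host cells; luminescent beta-galactosidase reporter signal from transgenic T. cruzi replicating inside host cells; inhibitors lower the luminescence signal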
[6] = Luminescence Cell-Based Secondary HTS screen to identify cytotoxic compounds of NIH3T3 cells. [Related pubchem assays: 1885, 1968 ]; type: functional
[7] = NIH3T3 cell viability loss – ATP luminescence, mouse fibroblasts, counter-screen, dose response (AID 2010); type: functional, cell-based;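 further: cells exposed to compound for about 90 hours before reading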
[8] = molecular target: T3, Short transient receptor potential channel 4 (Mus musculus, UniProt Q9QUQ5); experiment: block of DAMGO-driven TRPC4 calcium entry – cell-based, HEK293 TRPC4/mu-opioid, Fluo-4 calcium, dose response (AID 434942); type: functional;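 further: potency of inhibitors blocking the TRPC4 calcium response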
T3 sequence (Q9QUQ5 whole entry): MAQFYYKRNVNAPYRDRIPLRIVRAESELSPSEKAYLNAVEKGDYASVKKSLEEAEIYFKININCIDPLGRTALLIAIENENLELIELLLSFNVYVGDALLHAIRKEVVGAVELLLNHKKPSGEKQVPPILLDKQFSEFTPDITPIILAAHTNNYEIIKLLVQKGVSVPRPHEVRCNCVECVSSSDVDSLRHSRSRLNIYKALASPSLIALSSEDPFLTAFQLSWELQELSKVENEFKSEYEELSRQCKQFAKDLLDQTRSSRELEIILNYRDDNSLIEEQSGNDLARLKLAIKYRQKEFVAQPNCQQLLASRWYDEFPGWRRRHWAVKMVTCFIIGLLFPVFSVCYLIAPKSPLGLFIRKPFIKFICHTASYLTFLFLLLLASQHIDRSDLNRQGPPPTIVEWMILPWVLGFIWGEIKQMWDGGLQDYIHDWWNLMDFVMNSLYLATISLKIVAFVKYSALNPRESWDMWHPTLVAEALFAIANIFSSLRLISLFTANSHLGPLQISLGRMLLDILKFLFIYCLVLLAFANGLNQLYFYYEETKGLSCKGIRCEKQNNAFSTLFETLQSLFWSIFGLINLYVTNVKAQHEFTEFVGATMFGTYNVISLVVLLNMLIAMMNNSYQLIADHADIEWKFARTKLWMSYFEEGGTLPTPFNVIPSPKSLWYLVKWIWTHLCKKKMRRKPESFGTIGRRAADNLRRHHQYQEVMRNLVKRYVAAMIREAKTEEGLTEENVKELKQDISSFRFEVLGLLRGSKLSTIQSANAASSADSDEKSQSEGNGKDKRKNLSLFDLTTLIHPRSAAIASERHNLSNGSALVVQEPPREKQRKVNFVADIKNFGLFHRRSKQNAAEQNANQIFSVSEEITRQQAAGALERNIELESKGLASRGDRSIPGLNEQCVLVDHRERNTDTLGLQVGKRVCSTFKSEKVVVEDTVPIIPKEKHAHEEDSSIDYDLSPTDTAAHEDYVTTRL

Bcl-2-like protein 10 = molecular target: T4, Bcl-2-like protein 10 (Homo sapiens, UniProt Q9HD36); experiment: Concentration-response of Bcl-B inhibitors by biochemical FP with TR3 (AID 1243); type: functional
T4 sequence (Q9HD36 whole entry): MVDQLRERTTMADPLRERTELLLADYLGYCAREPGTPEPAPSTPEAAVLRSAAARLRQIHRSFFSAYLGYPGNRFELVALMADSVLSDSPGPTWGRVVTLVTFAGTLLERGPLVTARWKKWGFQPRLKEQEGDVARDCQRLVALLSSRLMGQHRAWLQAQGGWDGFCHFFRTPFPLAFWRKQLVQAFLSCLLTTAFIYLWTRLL

[9] = M. tuberculosis H37Rv growth inhibitors, H37Rv strain (AID 1626); type: functional
[10] = molecular target: G2/mitotic-specific cyclin-B1 (Homo sapiens, UniProt P14635); experiment: Counterscreen assay for inhibitors of Wee1 degradation: dose response cell-based assay to identify inhibitors of cyclin B degradation. [Related pubchem assays: 1410, 1321 ]; type: functional
G2/mitotic-specific cyclin-B1, sequence (P14635 whole entry): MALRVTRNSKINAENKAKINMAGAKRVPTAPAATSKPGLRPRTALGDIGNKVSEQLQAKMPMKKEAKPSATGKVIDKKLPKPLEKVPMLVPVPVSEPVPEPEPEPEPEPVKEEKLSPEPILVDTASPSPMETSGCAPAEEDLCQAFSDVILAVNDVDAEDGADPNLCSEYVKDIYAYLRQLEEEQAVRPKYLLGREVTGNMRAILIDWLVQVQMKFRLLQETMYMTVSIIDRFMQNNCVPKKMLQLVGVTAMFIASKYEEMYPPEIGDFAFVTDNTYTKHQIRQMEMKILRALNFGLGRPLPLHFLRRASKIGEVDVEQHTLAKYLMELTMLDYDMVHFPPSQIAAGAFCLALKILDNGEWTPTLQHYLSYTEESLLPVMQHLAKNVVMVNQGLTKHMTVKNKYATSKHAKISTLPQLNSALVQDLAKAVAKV

[11] = Luminescence Cell-Based Dose Confirmation HTS to Identify Activators of 5'UTR Stem-Loop Driven Alpha-Synuclein mRNA Translation in H4 Neuroglioblastoma Cells. [Related pubchem assays: 1829 (Project Summary), 1814 (Primary HTS)]; type: functional
[12] = Luminescence Cell-Based Dose Response HTS to Identify Activators of Luciferase Translation or Activity in H4 […] Cells. [Related pubchem assays: 1829 (Project Summary), 1814 (Primary HTS)]; type: functional
Wee1-like protein kinase = Wee1-like protein kinase (Homo sapiens, UniProt P30291); experiment: Dose Response Cell-based Assay for Inhibitors of Wee1 Degradation. [Related pubchem assays: 1410, 1321 ]; type: functional
Wee1-like protein kinase, sequence (P30291 whole entry): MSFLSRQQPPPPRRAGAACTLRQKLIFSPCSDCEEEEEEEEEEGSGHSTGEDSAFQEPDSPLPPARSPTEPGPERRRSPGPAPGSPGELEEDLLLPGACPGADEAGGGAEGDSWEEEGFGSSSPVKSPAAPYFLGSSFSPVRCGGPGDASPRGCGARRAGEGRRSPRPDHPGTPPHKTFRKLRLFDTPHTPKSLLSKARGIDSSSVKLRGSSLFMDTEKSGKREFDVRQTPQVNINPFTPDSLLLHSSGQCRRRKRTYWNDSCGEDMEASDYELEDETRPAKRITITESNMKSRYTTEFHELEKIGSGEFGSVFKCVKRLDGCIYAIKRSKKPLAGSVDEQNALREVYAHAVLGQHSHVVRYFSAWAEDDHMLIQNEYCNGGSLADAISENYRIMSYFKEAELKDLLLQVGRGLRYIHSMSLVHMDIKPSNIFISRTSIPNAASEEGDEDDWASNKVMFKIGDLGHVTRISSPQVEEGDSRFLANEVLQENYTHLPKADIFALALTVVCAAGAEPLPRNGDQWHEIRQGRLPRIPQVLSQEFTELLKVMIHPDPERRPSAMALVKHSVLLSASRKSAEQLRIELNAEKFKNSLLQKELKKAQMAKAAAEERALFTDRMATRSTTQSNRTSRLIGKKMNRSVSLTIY

H4 = experiment: Luminescence Cell-Based Dose Response HTS to Identify Activators of 5'UTR Stem-Loop Driven Prion Protein mRNA Translation in H4 Neuroglioblastoma Cells. [Related pubchem assays: 1829 (Project Summary), 1814 (Primary HTS)]; type: functional; details: Homo sapiens
[13] = molecular target: T5, Mitochondrial peptide methionine sulfoxide reductase (Bos taurus, UniProt P54149); type: functional;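 on IC50: absorbance read-out, biochemical high-throughput dose-response screen for MsrA inhibitors, confirmatory; recombinant bovine MsrA coupled to E. coli TrxB with NADPH and selenocystamine; potency is for inhibitors of MsrA activity on DMSO substrate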
T5 sequence (P54149 whole entry): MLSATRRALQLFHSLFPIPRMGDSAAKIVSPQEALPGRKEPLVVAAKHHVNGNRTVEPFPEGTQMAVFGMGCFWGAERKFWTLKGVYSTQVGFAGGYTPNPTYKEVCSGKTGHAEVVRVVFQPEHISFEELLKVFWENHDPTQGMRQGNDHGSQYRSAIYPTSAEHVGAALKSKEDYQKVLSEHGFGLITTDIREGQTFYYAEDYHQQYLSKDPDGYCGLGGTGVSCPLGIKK

[14] = molecular target: T6, Mannose-6-phosphate isomerase (Homo sapiens, UniProt P34949); experiment: MPI enzyme activity inhibition – biochemical, fluorescence intensity, coupled assay, primary screen (AID 1209)
T6 sequence (P34949 whole entry): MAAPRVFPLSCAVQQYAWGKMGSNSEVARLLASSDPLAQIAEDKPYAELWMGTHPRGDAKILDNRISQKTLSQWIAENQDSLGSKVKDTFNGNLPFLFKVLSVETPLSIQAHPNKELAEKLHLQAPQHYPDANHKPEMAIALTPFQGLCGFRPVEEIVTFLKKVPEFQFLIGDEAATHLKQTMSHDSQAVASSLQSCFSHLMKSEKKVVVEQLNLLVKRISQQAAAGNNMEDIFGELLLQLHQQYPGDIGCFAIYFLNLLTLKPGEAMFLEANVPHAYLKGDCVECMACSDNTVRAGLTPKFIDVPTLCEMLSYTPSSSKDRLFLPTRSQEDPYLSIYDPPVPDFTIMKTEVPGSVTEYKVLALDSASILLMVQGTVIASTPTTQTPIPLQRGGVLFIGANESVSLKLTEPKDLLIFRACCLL

[15] = molecular target: T6, Mannose-6-phosphate isomerase; experiment: phosphomannose isomerase inhibition – biochemical, fluorescence intensity, confirmation (AID 1535)
Phosphomannomutase 2 = Phosphomannomutase 2 (Homo sapiens, UniProt O15305); experiment: Counter screen SAR assay for PMM2 inhibitors via a fluorescence intensity assay. [Related pubchem assays (depositor defined):AID1545, AID1574]
Phosphomannomutase 2, sequence (O15305 whole entry): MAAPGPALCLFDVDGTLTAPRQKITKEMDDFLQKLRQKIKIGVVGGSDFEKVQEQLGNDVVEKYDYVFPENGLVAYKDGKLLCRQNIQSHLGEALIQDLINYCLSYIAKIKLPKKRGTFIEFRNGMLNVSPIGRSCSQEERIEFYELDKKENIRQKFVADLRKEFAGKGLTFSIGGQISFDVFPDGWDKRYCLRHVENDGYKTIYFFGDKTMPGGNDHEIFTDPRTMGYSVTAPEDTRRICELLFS

[16] = molecular target: T5, Mitochondrial peptide methionine sulfoxide reductase; experiment: Absorbance-based biochemical high throughput dose response assay for activators of Methionine sulfoxide reductase A (MsrA).; type: functional

With `COc1ccc(NC(=O)CSC2=NC(=O)CC(C)=N2)cc1` the IC50 (Leucine aminopeptidase) was 3.09 µM (active), the IC50 (Aspartyl aminopeptidase) was > 73.5 µM (not active) and the IC50 (Procathepsin L) was > 59.6 µM (not active). The AC50 (Cytochrome P450 2C19) was 15.8 µM (inconclusive) and the AC50 (Cytochrome P450 2C9) was 25.1 µM (inconclusive).

In the case of `CN1CCN(C(=O)/C=C/c2cn(-c3ccccc3)nc2-c2ccc3c(c2)OCCO3)CC1`, the IC50 [1] was > 100 µM (active), the IC50 (Melanocortin receptor 4) was > 64.6 µM (inactive) and the IC50 [2] was > 64.6 µM (inactive).

For `CC(C)CCOc1ccc(/C=C2\CCn3c2nc2cc(C(=O)O)ccc2c3=O)cc1`, the IC50 [3] was 32.2 µM (active).

With `COc1ccc(OC)c(C2CC(=O)N3CN(c4ccccc4F)CSC3=C2C#N)c1` (stereo not drawn) the IC50 (NS3) was 6.77 µM (active).

In the case of `CC(C)Oc1cccc(C(=O)C2CCCN(Cc3cnn(C(C)C)c3)C2)c1` (stereo not drawn), the EC50 [4] was 0.068 µM (active), the EC50 [5] was < 0.1 µM (active) and the EC50 [6] was > 195 µM (not active). For the same compound, the EC50 [7] was > 60 µM (not active), the EC50 [8] was 2.11 µM (active) and the EC50 (cells) was 0.039 µM (active).

With `O=C(O)C1Nc2c(C(=O)N3CCCC3)cccc2C2C=CCC12` (stereo not drawn) the EC50 (Bcl-2-like protein 10) was 4.95 µM (active).

For `Nc1cc(O)nc(SCC(=O)Nc2ccccc2-c2ccccc2)n1`, the IC50 [9] was > 100 µM (active).

For `COc1cccc(C2=CC(c3cccc(OC)c3OC)n3nnnc3N2)c1` (stereo not drawn), the EC50 [10] was > 49.7 µM (not active), the EC50 [11] was 26.1 µM (active) and the EC50 [12] was 17 µM (active). The EC50 (Wee1-like protein kinase) was > 49.7 µM (not active), the EC50 (H4) was 13.1 µM (active) and the IC50 [13] was 155 µM (inactive).

For `Sc1n[nH]c(-c2cccc(Br)c2)n1`, the IC50 [14] was 14.5 µM (active), the IC50 [15] was 6.15 µM (active) and the IC50 (Phosphomannomutase 2) was > 100 µM (inactive). The EC50 [16] was > 104 µM (inactive).
